In patent US20150313896A1, “METHOD FOR TREATING CELL PROLIFERATION DISORDERS” (Galderma Research & Development, priority 2013, published 2015):
Where a name gives a salt, the structure may show the parent alone. Read-outs that look alike come from different tables or passages of the source.

Columns and labels:
[1] = tested on: Albino hairless SKH1-hr mice; conditions: for Skin Thickening: number of mice with observation / Skin Thickening: total number of observations: 40 weeks
Protocol: Albino hairless SKH1-hr mice (36/sex/group) were treated for 40 weeks with UVR and brimonidine gel or vehicle according to the design in table 11. […] Topical treatments were performed approximately one hour before UVR on Monday, Wednesday and Friday of each week and approximately one hour after UVR Tuesday and Thursday of each week.
*Monday, Wednesday and Friday of each week: exposure to UVR approximately one hour after test item application. Tuesday and Thursday of each week: exposure to UVR approximately one hour before test item application.
The UVR exposure was 600 RBU/week for all test groups in the table.

[2] = tested on: SKH1 mice; assay: UVB-induced epidermal hyperplasia: EdU detection of proliferating keratinocytes; type: in vivo
Protocol: (§1) SKH1 mice were treated and exposed to UVB irradiation. The back skin of the mice was exposed to 120 mJ/cm^2 UVB using the Biospectra system equipped with UVB sunlamps with a maximum emission peak at 312 nm. Irradiations were performed under isoflurane gaseous anesthesia. Mice were treated with vehicle (PEG400/EtOH/PHY (30/20/50) p/p) or brimonidine tartrate at 0.2% or 2%, by weight, administrated by topical application (100 μl) on a 10 cm^2 area on the upper part of the back using a micropipette. The area is located on the upper part of the back to prevent the animals from liking themselves. Three applications were performed according to the following two treatment schedules:
(§2) (a) pre-treatment: one application 1 hour prior to UVB irradiation, followed by two more applications 23 hours apart;
(§3) (b) post-treatment: one application immediately following the UVB irradiation, followed by two more applications 23 hours apart.
(§4) A compound reference, i.e., an EGFR inhibitor at 4%, by weight, in EtOH/H2O (76/24) was also administrated according to the pre-treatment schedule.
One hour after the third topical treatment and one hour before euthanasia, mice received an intraperitoneal (i.p.) injection of 5-ethynyl-2′-deoxyuridine (EdU) at 100 mg/kg. After mouse euthanasia using cervical dislocation, the back skin was removed and immediately fixed in formol. […]
For EdU detection, two or three sections of 7 μm per animal were submitted to EdU staining. […] Nuclei were also stained with 4′,6-diamidino-2-phenylindole (DAPI) diluted at 5 mg/mL in Vectashield Hard Set Mounting medium for Fluorescence (ref: H-1400 Vector Laboratories). The number of keratinocytes stained with Alexa Fluor® 594 was counted from digital images (NanoZoomer C9600-12, Hamamatsu Photonics K.K) and the epidermis length of each section determined using an in house dedicated tool.
Data were analyzed using unpaired t test for validation of the UVB irradiation and one-way ANOVA with Dunnett's multiple comparison test for the analysis of the treatment effect (Prism 6; GraphPad Software Inc., San Diego, Calif., USA). […]

[3] = tested on: SKH1 mice; assay: UVB-induced epidermal hyperplasia: epidermis thickness (H&E); type: in vivo; conditions: for Decrease of the epidermal thickness: post-treatment schedule (immediately after UVB, then twice 23 h apart)
Protocol: as §1, §2, §3, §4
One hour after the third topical treatment and one hour before euthanasia, mice received an intraperitoneal (i.p.) injection of 5-ethynyl-2′-deoxyuridine (EdU) at 100 mg/kg. After mouse euthanasia using cervical dislocation, the back skin was removed and immediately fixed in formol. The formol-fixed skin samples were embedded in paraffin and then submitted to immunohistological studies for epidermal thickness and EdU detection.
For epidermal thickness, two sections of 7 μm per animal were stained in hematoxylin and eosin (H&E) stain. Skin histology and the epidermis thickness were analyzed using image analysis (mScope 3.9, Aurora mScope) on scanned slide pictures (NanoZoomer C9600-12, Hamamatsu Photonics K.K).
Data were analyzed using unpaired t test for validation of the UVB irradiation and one-way ANOVA with Dunnett's multiple comparison test for the analysis of the treatment effect (Prism 6; GraphPad Software Inc., San Diego, Calif., USA). A p value of less than 0.05 was regarded as significant.

## Brc1c(NC2=NCCN2)ccc2nccnc12 [brimonidine tartrate, (5-Bromo-quinoxalin-6-yl)-(4,5-dihydro-1H-imidazol-2-yl)-amine]
[1]; 0.18% (w/w) topical
  UV-induced skin thickness, statistical effect: did not statistically reduce
[1]; 1% (w/w) topical
  UV-induced skin thickness, statistical effect: statistically reduced
[1]; 2% (w/w) topical
  UV-induced skin thickness, statistical effect: statistically reduced
[1]; female mice (36 tested), 0.18% brimonidine tartrate gel topical, UVR 600 RBU/week
  Skin Thickening: number of mice with observation: 32
[1]; female mice (36 tested), 1% brimonidine tartrate gel topical, UVR 600 RBU/week
  Skin Thickening: number of mice with observation: 25
[1]; female mice (36 tested), 2% brimonidine tartrate gel topical, UVR 600 RBU/week
  Skin Thickening: number of mice with observation: 23
[1]; female mice, 0.18% brimonidine tartrate gel topical, UVR 600 RBU/week
  Skin Thickening: total number of observations: 521
[1]; female mice, 1% brimonidine tartrate gel topical, UVR 600 RBU/week
  Skin Thickening: total number of observations: 374
[1]; female mice, 2% brimonidine tartrate gel topical, UVR 600 RBU/week
  Skin Thickening: total number of observations: 381
[1]; male mice (36 tested), 0.18% brimonidine tartrate gel topical, UVR 600 RBU/week
  Skin Thickening: number of mice with observation: 34
[1]; male mice (36 tested), 1% brimonidine tartrate gel topical, UVR 600 RBU/week
  Skin Thickening: number of mice with observation: 27
[1]; male mice (36 tested), 2% brimonidine tartrate gel topical, UVR 600 RBU/week
  Skin Thickening: number of mice with observation: 24
[1]; male mice, 0.18% brimonidine tartrate gel topical, UVR 600 RBU/week
  Skin Thickening: total number of observations: 514
[1]; male mice, 1% brimonidine tartrate gel topical, UVR 600 RBU/week
  Skin Thickening: total number of observations: 392
[1]; male mice, 2% brimonidine tartrate gel topical, UVR 600 RBU/week
  Skin Thickening: total number of observations: 367
[1]; topical 0.18%, 1% and 2%, UVR 600 RBU/week
  UV-induced skin thickening, effect in words: dose-dependent reduction
[2]; 0.2% topical, post-treatment schedule
  Reduction of the number of EdU positive cells: 25%
[2]; 2% topical, post-treatment schedule
  Reduction of the number of EdU positive cells: −64%
[2]; 2% topical, pre-treatment schedule
  Reduction of the number of EdU positive cells: −59%
[3]; 0.2% (w/w) topical
  Decrease of the epidermal thickness: −16%
[3]; 0.2% (w/w) topical, pre-treatment schedule
  Inhibition of UVB-induced acanthosis (epidermis thickness): no effect
[3]; 2% (w/w) topical
  Decrease of the epidermal thickness: −32%
[3]; 2% (w/w) topical, pre-treatment schedule (1 h before UVB 120 mJ/cm^2, then twice 23 h apart)
  Inhibition of UVB-induced acanthosis (epidermis thickness): −23%
